As a reminder, the melting point is the temperature, or range, at which the solid turns liquid. For `Cl.NCCCn1cc(Br)c2c3c(c(-c4ccccc4Cl)cc21)C(=O)NC3=O`, the melting point lay within 310 to 313 °C.
Under `COc1ccccc1-c1cc2c(ccn2C)c2c1C(=O)NC2=O` [Example 27, 4-(2-Methoxyphenyl)-6-methyl-6H-2,6-diaza-as-indacene-1,3-dione] stands 243 to 245 °C.
Under `COc1ccccc1-c1cc2c(c(Br)cn2C)c2c1C(=O)NC2=O` [Example 28, 8-Bromo-4-(2-methoxyphenyl)-6-methyl-6H-2,6-diaza-as-indacene-1,3-dione] stands 216 to 220 °C; under `COc1ccccc1-c1cc2c(c(Cl)cn2C)c2c1C(=O)NC2=O` [Example 30, 8-Chloro-4-(2-methoxyphenyl)-6-methyl-6H-2,6-diaza-as-indacene-1,3-dione], 267 to 271 °C; under `CSc1ccccc1-c1cc2c(c(Br)cn2C)c2c1C(=O)NC2=O` [Example 31, 8-Bromo-6-methyl-4-(2-methylsulfanylphenyl)-6H-2,6-diaza-as-indacene-1,3-dione], 240 to 243 °C.
As to `Cn1cc(I)c2c3c(c(-c4ccccc4Cl)cc21)C(=O)NC3=O` [Example 32, 4-(2-Chlorophenyl)-8-iodo-6-methyl-6H-2,6-diaza-as-indacene-1,3-dione], the melting point is 150 to 154 °C (dec.).
Regarding `COc1cccc(Cl)c1-c1cc2c(ccn2C)c2c1C(=O)NC2=O` [Example 33, 4-(2-Chloro-6-methoxyphenyl)-6-methyl-6H-2,6-diaza-as-indacene-1,3-dione], the melting point was in the range of 268 to 272 °C.
The value for `COc1cccc(Cl)c1-c1cc2c(c(Br)cn2C)c2c1C(=O)NC2=O` [Example 34, 8-Bromo-4-(2-chloro-6-methoxyphenyl)-6-methyl-6H-2,6-diaza-as-indacene-1,3-dione] was 238 to 242 °C.
As for `CCOCCOCCn1ccc2c3c(c(-c4ccccc4Cl)cc21)C(=O)NC3=O` [Example 35, 4-(2-Chlorophenyl)-6-[2-(2-ethoxyethoxy)ethyl]-6H-2,6-diaza-as-indacene-1,3-dione], the melting point was 173 °C.
As for `CCOCCOCCn1cc(Br)c2c3c(c(-c4ccccc4Cl)cc21)C(=O)NC3=O` [Example 36, 8-Bromo-4-(2-chlorophenyl)-6-[2-(2-ethoxyethoxy)ethyl]-6H-2,6-diaza-as-indacene-1,3-dione], the melting point was in the range of 108 to 110 °C.
Regarding `O=C1NC(=O)c2c1c(-c1ccccc1Cl)cc1c2ccn1CCCO` [Example 42, 4-(2-Chlorophenyl)-6-(3-hydroxypropyl)-6H-2,6-diaza-as-indacene-1,3-dione], the melting point was 225 to 227 °C.
The value for `COCCCn1ccc2c3c(c(-c4ccccc4Cl)cc21)C(=O)NC3=O` [Example 43, 4-(2-Chlorophenyl)-6-(3-methoxypropyl)-6H-2,6-diaza-as-indacene-1,3-dione] was 171 to 172 °C; that for `COCCCn1cc(Br)c2c3c(c(-c4ccccc4Cl)cc21)C(=O)NC3=O` [Example 44, 8-Bromo-4-(2-chlorophenyl)-6-(3-methoxypropyl)-6H-2,6-diaza-as-indacene-1,3-dione] was 149 to 151 °C; that for `CCOC(=O)c1cc2c3c(c(-c4ccccc4Cl)cc2n1CCCOC)C(=O)NC3=O` [Example 46, 4-(2-Chlorophenyl)-6-(3-methoxypropyl)-1,3-dioxo-1,2,3,6-tetrahydro-2,6-diaza-as-indacene-7-carboxylic acid ethyl ester] was 235 to 237 °C.
The value for `COCCCn1c(C(=O)O)cc2c3c(c(-c4ccccc4Cl)cc21)C(=O)NC3=O` [Example 47, 4-(2-Chlorophenyl)-6-(3-methoxypropyl)-1,3-dioxo-1,2,3,6-tetrahydro-2,6-diaza-as-indacene-7-carboxylic acid] was 272 to 274 °C; that for `CCOC(=O)c1cc2c3c(c(-c4ccccc4Cl)cc2n1CCCO)C(=O)NC3=O` [Example 48 (ii), 4-(2-Chlorophenyl)-6-(3-hydroxypropyl)-1,3-dioxo-1,2,3,6-tetrahydro-2,6-diaza-as-indacene-7-carboxylic acid ethyl ester] was 249 to 251 °C.
The value for `O=C1NC(=O)c2c1c(-c1ccccc1Cl)cc1c2cc(C(=O)O)n1CCCBr` [Example 49, 6-(3-Bromopropyl)-4-(2-chlorophenyl)-1,3-dioxo-1,2,3,6-tetrahydro-2,6-diaza-as-indacene-7-carboxylic acid] was 294 to 295 °C.
`O=C1NC(=O)c2c1c(-c1ccccc1Cl)cc1c2cc(CO)n1CCCBr` [Example 50, 6-(3-Bromopropyl)-4-(2-chlorophenyl)-7-hydroxymethyl-6H-2,6-diaza-as-indacene-1,3-dione] came in with a melting point of 218 to 220 °C.
The value for `COCCCn1c(C(N)=O)cc2c3c(c(-c4ccccc4Cl)cc21)C(=O)NC3=O` [Example 51, 4-(2-Chlorophenyl)-6-(3-methoxypropyl)-1,3-dioxo-1,2,3,6-tetrahydro-2,6-diaza-as-indacene-7-carboxylic acid amide] was 260 to 261 °C; that for `CCOCCOCCn1c(C=O)cc2c3c(c(-c4ccccc4Cl)cc21)C(=O)NC3=O` [Example 55, 4-(2-Chlorophenyl)-6-[2-(2-ethoxyethoxy)ethyl]-1,3-dioxo-1,2,3,6-tetrahydro-2,6-diaza-as-indacene-7-carbaldehyde] was 162 to 165 °C; that for `CCOCCOCCn1c(C=O)c(Br)c2c3c(c(-c4ccccc4Cl)cc21)C(=O)NC3=O` [Example 56, 8-Bromo-4-(2-chlorophenyl)-6-[2-(2-ethoxyethoxy)ethyl]-1,3-dioxo-1,2,3,6-tetrahydro-2,6-diaza-as-indacene-7-carbaldehyde] was 203 to 205 °C.
`COCCCn1c(C=O)cc2c3c(c(-c4ccccc4Cl)cc21)C(=O)NC3=O` [Example 58, 4-(2-Chlorophenyl)-6-(3-methoxypropyl)-1,3-dioxo-1,2,3,6-tetrahydro-2,6-diaza-as-indacene-7-carbaldehyde] yielded a melting point of 155 to 156 °C.
As to `COCCCn1c(CO)cc2c3c(c(-c4ccccc4Cl)cc21)C(=O)NC3=O` [Example 59, 4-(2-Chlorophenyl)-7-hydroxymethyl-6-(3-methoxypropyl)-6H-2,6-diaza-as-indacene-1,3-dione], the melting point was 187 to 189 °C.
The value for `COCCCn1c(CO)c(Br)c2c3c(c(-c4ccccc4Cl)cc21)C(=O)NC3=O` [Example 60, 8-Bromo-4-(2-chlorophenyl)-7-hydroxymethyl-6-(3-methoxypropyl)-6H-2,6-diaza-as-indacene-1,3-dione] was 178 to 180 °C.
The value for `COCCCn1c(C=O)c(Br)c2c3c(c(-c4ccccc4Cl)cc21)C(=O)NC3=O` [Example 61, 8-Bromo-4-(2-chlorophenyl)-6-(3-methoxypropyl)-1,3-dioxo-1,2,3,6-tetrahydro-2,6-diaza-as-indacene-7-carbaldehyde] was 206 to 207 °C; that for `O=C1NC(=O)c2c1c(-c1ccccc1Cl)cc1c2c(Br)c(CO)n1CCCO` [Example 63, 8-Bromo-4-(2-chlorophenyl)-7-hydroxymethyl-6-(3-hydroxypropyl)-6H-2,6-diaza-as-indacene-1,3-dione] was 203 to 205 °C; that for `COCCCn1c(C=O)c(Cl)c2c3c(c(-c4ccccc4Cl)cc21)C(=O)NC3=O` [Example 64, 8-Chloro-4-(2-chlorophenyl)-6-(3-methoxypropyl)-1,3-dioxo-1,2,3,6-tetrahydro-2;6-diaza-as-indacene-7-carbaldehyde] was 198 to 199 °C.
As for `O=C1NC(=O)c2c1c(-c1ccccc1Cl)cc1c2c(Cl)c(CO)n1CCCO` [Example 66, 8-Chloro-4-(2-chlorophenyl)-7-hydroxymethyl-6-(3-hydroxypropyl)-6H-2,6-diaza-as-indacene-1,3-dione], the melting point was 218 to 219 °C.
The value for `COCCCn1c(CO)c(Cl)c2c3c(c(-c4ccccc4Cl)cc21)C(=O)NC3=O` [Example 67, 8-Chloro-4-(2-chlorophenyl)-7-hydroxymethyl-6-(3-methoxypropyl)-6H-2,6-diaza-as-indacene-1,3-dione] was 214 to 215 °C; that for `COCCOCCCn1c(C=O)c(Br)c2c3c(c(-c4ccccc4Cl)cc21)C(=O)NC3=O` [Example 69, 8-Bromo-4-(2-chlorophenyl)-6-[3-(2-methoxyethoxy)propyl]-1,3-dioxo-1,2,3,6-tetrahydro-2,6-diaza-as-indacene-7-carbaldehyde] was 168 to 169 °C.
Under `COCCOCCCn1c(CO)c(Br)c2c3c(c(-c4ccccc4Cl)cc21)C(=O)NC3=O` [Example 70] stands 149 to 150 °C; under `Cn1c(C(=O)O)cc2c3c(c(-c4ccccc4Cl)cc21)C(=O)NC3=O` [Example 83, 4-(2-Chlorophenyl)-6-methyl-1,3-dioxo-1,2,3,6-tetrahydro-2,6-diaza-as-indacene-7-carboxylic acid], 301 to 302 °C; under `Cn1cc(Br)c2c3c(c(I)cc21)C(=O)NC3=O` [Example 132, 8-Bromo-4-iodo-6-methyl-6H-2,6-diaza-as-indacene-1,3-dione], 242 °C (dec.).
Under `CSc1ccccc1-c1cc2c(ccn2C)c2c1C(=O)NC2=O` [Example 134 (sulfide), 6-Methyl-4-(2-methylsulfanylphenyl)-6H-2,6-diaza-as-indacene-1,3-dione] stands 272 to 274 °C; under `Cn1ccc2c3c(c(-c4ccccc4[S+](C)[O-])cc21)C(=O)NC3=O` (stereo not shown) [Example 134 (sulfoxide), 4-(2-Methanesulfinylphenyl)-6-methyl-6H-2,6-diaza-as-indacene-1,3-dione], 311 to 315 °C; under `C[C@@H]1CN(CCCn2cc(Br)c3c4c(c(-c5ccccc5Cl)cc32)C(=O)NC4=O)C[C@H](C)N1` [Example 135, 8-Bromo-4-(2-chlorophenyl)-6-[3-(cis-3,5-dimethylpiperazin-1-yl)propyl]-6H-2,6-diaza-as-indacene-1,3-dione], 236 to 239 °C.
`O=C1NC(=O)c2c1c(-c1ccccc1Cl)cc1c2c(Br)cn1CCCN1CCCC1` [Example 137, 8-Bromo-4-(2-chlorophenyl)-6-(3-pyrrolidin-1-ylpropyl)-6H-2,6-diaza-as-indacene-1,3-dione] registered a melting point of 158 to 161 °C.

Values taken from patent publication US20050250836A1, “Inhibitors of checkpoint kinases (Wee1 and Chk1)” (Pfizer Inc, priority 2004, published 2005).
